Results: the NIST ThermoML archive (doi:10.1016/j.jct.2014.06.023)
Several values for one entry are separate records, joined by “and”; a condition that tells them apart may be missing. Equal values may be shown once.

Details: Buoyancy - hydrostatic balance with magnetic suspension - one sinker

CC [ethane]
Details | mass density
225.41 K, 310.68 kPa, Gas | 5.2843 kg/m3
225.41 K, 1642.2 kPa, Liquid | 489.85 kg/m3
225.42 K, 212.66 kPa, Gas | 3.5454 kg/m3
225.42 K, 1086.8 kPa, Liquid | 488.834 kg/m3
225.42 K, 2133.2 kPa, Liquid | 490.717 kg/m3
225.43 K, 709.57 kPa, Liquid | 488.151 kg/m3
225.44 K, 403.34 kPa, Gas | 6.9981 kg/m3
225.47 K, 499.44 kPa, Gas | 8.8558 kg/m3
230.34 K, 306.85 kPa, Gas | 5.0853 kg/m3
230.34 K, 1666.7 kPa, Liquid | 482.366 kg/m3
230.34 K, 2111.2 kPa, Liquid | 483.236 kg/m3
230.35 K, 197.35 kPa, Gas | 3.2054 kg/m3
230.35 K, 391.01 kPa, Gas | 6.5852 kg/m3
230.35 K, 493.22 kPa, Gas | 8.4852 kg/m3
230.35 K, 2447.9 kPa, Liquid | 483.853 kg/m3
230.36 K, 615.49 kPa, Gas | 10.8842 kg/m3
230.36 K, 1671.6 kPa, Liquid | 482.356 kg/m3
230.37 K, 1281 kPa, Liquid | 481.577 kg/m3
230.38 K, 886.51 kPa, Liquid | 480.769 kg/m3
235 K, 391.54 kPa, Gas | 6.4356 kg/m3
235.01 K, 305.16 kPa, Gas | 4.9382 kg/m3
235.01 K, 499.46 kPa, Gas | 8.3818 kg/m3
235.01 K, 592.34 kPa, Gas | 10.1286 kg/m3
235.02 K, 197.5 kPa, Gas | 3.137 kg/m3
235.03 K, 694.56 kPa, Gas | 12.1431 kg/m3
239.99 K, 717.05 kPa, Gas | 12.2167 kg/m3
240.01 K, 954.18 kPa, Gas | 17.1448 kg/m3
240.04 K, 105.82 kPa, Gas | 1.619 kg/m3
240.04 K, 323.6 kPa, Gas | 5.1239 kg/m3
240.04 K, 502.79 kPa, Gas | 8.2138 kg/m3
240.04 K, 1755.7 kPa, Liquid | 466.891 kg/m3
240.05 K, 2196.3 kPa, Liquid | 467.899 kg/m3
240.06 K, 1092.2 kPa, Liquid | 465.243 kg/m3
240.06 K, 1457.2 kPa, Liquid | 466.142 kg/m3
240.08 K, 2591.9 kPa, Liquid | 468.767 kg/m3
240.09 K, 2936.2 kPa, Liquid | 469.524 kg/m3
244.91 K, 880.77 kPa, Gas | 15.0548 kg/m3
244.91 K, 1111.6 kPa, Gas | 20.0182 kg/m3
244.92 K, 628.26 kPa, Gas | 10.2258 kg/m3
244.92 K, 877.28 kPa, Gas | 14.9812 kg/m3
244.92 K, 1123.2 kPa, Liquid | 456.739 kg/m3
244.92 K, 1225 kPa, Liquid | 457.081 kg/m3
244.92 K, 1442.7 kPa, Liquid | 457.624 kg/m3
244.93 K, 138.73 kPa, Gas | 2.0893 kg/m3
244.93 K, 350.79 kPa, Gas | 5.4481 kg/m3
244.93 K, 350.8 kPa, Gas | 5.4496 kg/m3
244.93 K, 904.97 kPa, Gas | 15.5558 kg/m3
244.93 K, 1659 kPa, Liquid | 458.187 kg/m3
244.93 K, 1659.6 kPa, Liquid | 458.185 kg/m3
244.95 K, 1111.4 kPa, Gas | 20.0202 kg/m3
249.79 K, 863.82 kPa, Gas | 14.2661 kg/m3
249.8 K, 863.8 kPa, Gas | 14.2677 kg/m3
249.8 K, 1281.6 kPa, Gas | 23.1579 kg/m3
249.81 K, 360.58 kPa, Gas | 5.4802 kg/m3
249.81 K, 633.6 kPa, Gas | 10.0488 kg/m3
249.81 K, 1067.5 kPa, Gas | 18.3574 kg/m3 and 18.3577 kg/m3
249.81 K, 1281.3 kPa, Gas | 23.1411 kg/m3
249.82 K, 147.6 kPa, Gas | 2.1773 kg/m3
249.84 K, 2352.9 kPa, Liquid | 451.272 kg/m3
249.85 K, 2081.5 kPa, Liquid | 450.462 kg/m3
249.86 K, 2510.3 kPa, Liquid | 451.694 kg/m3
249.86 K, 2510.4 kPa, Liquid | 451.694 kg/m3
249.87 K, 2510.9 kPa, Liquid | 451.681 kg/m3
249.9 K, 1805.5 kPa, Liquid | 449.546 kg/m3
249.93 K, 1301 kPa, Liquid | 447.948 kg/m3
249.93 K, 1354.2 kPa, Liquid | 448.104 kg/m3
249.93 K, 1591.6 kPa, Liquid | 448.847 kg/m3
254.69 K, 1692.1 kPa, Liquid | 439.901 kg/m3
254.69 K, 2265.9 kPa, Liquid | 441.863 kg/m3
254.7 K, 2492.4 kPa, Liquid | 442.576 kg/m3
254.7 K, 2493.3 kPa, Liquid | 442.588 kg/m3
254.72 K, 114.93 kPa, Gas | 1.6547 kg/m3
254.72 K, 2013.5 kPa, Liquid | 440.937 kg/m3
254.73 K, 225.89 kPa, Gas | 3.2988 kg/m3
254.74 K, 1474.7 kPa, Gas | 26.843 kg/m3
254.75 K, 3109.9 kPa, Liquid | 444.464 kg/m3
254.76 K, 634.94 kPa, Gas | 9.817 kg/m3
254.76 K, 825.19 kPa, Gas | 13.1528 kg/m3
254.76 K, 1040.1 kPa, Gas | 17.2189 kg/m3
254.76 K, 1280.4 kPa, Gas | 22.2529 kg/m3
254.76 K, 1280.5 kPa, Gas | 22.2533 kg/m3
254.76 K, 2860.9 kPa, Liquid | 443.666 kg/m3
254.77 K, 423.98 kPa, Gas | 6.354 kg/m3
254.78 K, 3457.8 kPa, Liquid | 445.504 kg/m3
254.81 K, 2648.7 kPa, Liquid | 442.883 kg/m3
259.62 K, 933.39 kPa, Gas | 14.7341 kg/m3
259.62 K, 1174.9 kPa, Gas | 19.3302 kg/m3
259.62 K, 1700.9 kPa, Liquid | 429.637 kg/m3
259.62 K, 2698.9 kPa, Liquid | 433.539 kg/m3
259.63 K, 152.52 kPa, Gas | 2.1615 kg/m3
259.63 K, 358.5 kPa, Gas | 5.211 kg/m3
259.63 K, 550.88 kPa, Gas | 8.2159 kg/m3
259.63 K, 726.92 kPa, Gas | 11.1161 kg/m3
259.63 K, 1351.5 kPa, Gas | 23.0156 kg/m3
259.63 K, 1351.6 kPa, Gas | 23.0046 kg/m3
259.63 K, 1548.6 kPa, Gas | 27.5129 kg/m3
259.63 K, 2097.3 kPa, Liquid | 431.21 kg/m3
259.63 K, 2412.9 kPa, Liquid | 432.441 kg/m3
259.63 K, 3076.2 kPa, Liquid | 434.902 kg/m3
265.02 K, 505.8 kPa, Gas | 7.3166 kg/m3
265.06 K, 116.65 kPa, Gas | 1.6114 kg/m3
265.06 K, 279.98 kPa, Gas | 3.9405 kg/m3
265.06 K, 3532.6 kPa, Liquid | 425.483 kg/m3
265.07 K, 1811.5 kPa, Gas | 32.6652 kg/m3
265.07 K, 2278.6 kPa, Liquid | 419.942 kg/m3
265.07 K, 2962.8 kPa, Liquid | 423.046 kg/m3
265.08 K, 1404.5 kPa, Gas | 23.2391 kg/m3
265.08 K, 1612.3 kPa, Gas | 27.8016 kg/m3
265.08 K, 2073 kPa, Liquid | 418.96 kg/m3
265.08 K, 2322.7 kPa, Liquid | 420.14 kg/m3
265.08 K, 2963.1 kPa, Liquid | 423.044 kg/m3
265.08 K, 3081.3 kPa, Liquid | 423.536 kg/m3
265.08 K, 3090.5 kPa, Liquid | 423.579 kg/m3
265.09 K, 2565.3 kPa, Liquid | 421.145 kg/m3
265.09 K, 3539.3 kPa, Liquid | 425.459 kg/m3
265.1 K, 816.83 kPa, Gas | 12.3046 kg/m3
265.1 K, 1004.4 kPa, Gas | 15.548 kg/m3
265.1 K, 1199.4 kPa, Gas | 19.1462 kg/m3
265.1 K, 2730.8 kPa, Liquid | 421.962 kg/m3
